Reference: patent US20240208895A1, “BRANCHED-CHAIN AMINO ACID DERIVATIVES TO TREAT DISEASE” (INTRABIO LTD., priority 2021, published 2024)
Read-outs that look alike come from different tables or passages of the source. Values belong to the molecule of their own block, whether it stands above or below them.

Legend:
[1] = Description: (§1) A Compound of the Disclosure is incubated at 1 μM, 10 μM and 100 μM with pooled liver S9 fractions from human (mixed gender) and mouse (CD1) at 1.5 mg/mL in 300 μL buffer containing phosphate 100 mM, MgCl2 2 mM, pH 7.4 at 37° C. for 0, 10, 20, 40, 60 min.
(§2) Enzyme kinetic data for uptake and metabolism of a Compound of the Disclosure is analysed by fitting the Michaelis-Menten equation to the data. V0=Vmax[S]/Km+[S], where V0 is initial velocity, [S] is substrate concentration, Vmax is maximum velocity and Km is substrate concentration at half Vmax. All fitting is performed using GraphPad Prism 8.4 software (GraphPad Software Inc). No weighting scheme is applied.

[2] = remark: listed apart in the source
Description: as §1, §2

[3] = target: T1, monocarboxylate transporter (MCT1) (Homo sapiens, UniProt P53985); experiment: Inhibition of MCT1 uptake of known substrate 2-thiophene glyoxylate; assay type: cell-based; set-up: expressed in transfected cells
T1 sequence (P53985 1-500): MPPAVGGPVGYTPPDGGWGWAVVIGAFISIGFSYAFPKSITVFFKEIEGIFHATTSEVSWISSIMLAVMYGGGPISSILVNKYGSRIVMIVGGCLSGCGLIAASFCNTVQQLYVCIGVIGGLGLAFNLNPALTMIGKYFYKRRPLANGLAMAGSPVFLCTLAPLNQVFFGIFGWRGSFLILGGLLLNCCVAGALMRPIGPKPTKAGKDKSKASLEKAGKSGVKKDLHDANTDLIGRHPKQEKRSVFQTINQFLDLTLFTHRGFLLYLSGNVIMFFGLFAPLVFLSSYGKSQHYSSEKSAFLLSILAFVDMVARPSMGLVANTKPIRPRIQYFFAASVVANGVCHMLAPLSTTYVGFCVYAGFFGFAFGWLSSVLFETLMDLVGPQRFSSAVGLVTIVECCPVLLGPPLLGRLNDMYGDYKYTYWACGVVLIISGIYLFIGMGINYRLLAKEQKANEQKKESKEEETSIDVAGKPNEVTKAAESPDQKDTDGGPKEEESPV
Description: FIG. 4(c) is a line graph showing concentration-inhibition curves for the inhibition of uptake of the known substrate 2-thiophene glyoxylate (500 μM) for MCT1. DMSO (0.5%) was the solvent control (SC) and the known inhibitor phloretin (500 μM) was the positive control (PC).
FIG. 4(d) is a line graph showing concentration-inhibition curves for the inhibition of uptake of the known substrate 2-thiophene glyoxylate (500 μM) for MCT1. DMSO (0.5%) was the solvent control (SC) and the known inhibitor phloretin (500 μM) was the positive control (PC).
The known probe substrates used as positive controls are 3 μM chlorothiazide for OAT1, 2 μM estrone-3-sulfate for OAT3, 10 μM gabapentin for LAT1, 50 μM Gly-Sar for PepT1, 500 μM thiophene-2-glyoxylic acid for MCT1.
The IC50 value for the test item is determined by fitting the Hill equation in the following form:
where A % is the percent activity remaining (the mean cellular uptake observed in the solvent control sample set to 100% and the mean cellular uptake observed in the presence of the positive control inhibitor set to 0%), Top and Bottom are the upper and lower plateau of A %. [I] is the inhibitor concentration and IC50 is the inhibitor concentration where the remaining activity is at the midpoint between the Top and Bottom.

human transporter MCT1 = target: T2, human transporter MCT1 (Homo sapiens, UniProt P53985); experiment: Human MCT1-mediated transport in MDCK-II cells (Example 9); assay type: cell-based; conditions: MDCK-II cells expressing human MCT1, pH 5.5, 1 minute, normalized to Vmax of thiophene-2-glyoxylic acid
T2 construct: expressed in transfected cells; host or cells: MDCK-II
T2 sequence (P53985 1-500): T1 sequence (P53985 1-500)
Description: Representative Compounds of the Disclosure are tested in (i) MDCK-II cells expressing human transporter MCT1; and (ii) MDCK-II cells transfected with a control vector (GFP) as control cells for human transporter MCT1. 2-Thiophene-glyoxylic acid (TPGA) is the positive control for transport.
• 1. A stock solution is prepared with the test article (Compound of the Disclosure) in DMSO or in HBSS-Bis-Tris. • 2. Final assay solutions of probe substrate or test article contain 0.5% (v/v) DMSO (vehicle control). • 3. Test article concentrations are 10 μM, 30 μM, 100 μM, 300 μM, 1000 μM, 3000 μM, and 10000 μM.
MDCK-II cells are maintained in DMEM with low glucose and 10% FBS. Cells passages up to 40 are seeded at 60K±10K cells/well on 96-well, transwell membrane plates approximately 24 hours before transfection. Transport assays are carried out approximately 48 hours after transfection.
• 1. Test system: • a. Test system: 96-well cell culture plate with wells containing a monolayer of MDCK-II cells grown on a permeable support and a corresponding 96-well receiver tray. Cell plates are maintained at 37° C. in 5% CO2 atmosphere prior to initiation of the transport experiment. • b. Pre-incubation is conducted in HBSS, pH 7.4. Transport experiments are conducted in HBSS with Bis-Tris, pH 5.5, without phenol red. Pre-incubation and incubation are conducted at ambient temperatures. • c. Each condition is run in triplicate wells. • d. […] The result from the control cells is used to correct for substrate permeation by routes other than the transporter being investigated in the study. • 2. Prepare the 96-well plate as follows: • a. Wash the basal side of the culture plate insert with HBSS three times. After the final wash, blot the basal side of the wells and keep this side dry. • b. Wash the culture plate wells with HBSS three times. The wells of the culture plate serve as the apical compartment. • 3. Aspirate the final wash from the culture plate. The wells of the culture plate serve as the apical compartment. Add 100 μL of HBSS pH 7.4 pre-incubation buffer containing vehicle to the apical compartments. • 4. Incubate the plates with orbital shaking at approximately 60 RPM for the pre-incubation time specified in Table 1 of this protocol. • 5. Aspirate the pre-incubation buffer from the apical compartment of the plates. Add 100 μL of the experimental buffer that is prepared as follows and maintained at ambient temperatures. • a. For the probe substrate transport assay, the HBSS with Bis-Tris, pH 5.5 in each well contains the probe substrate at 500 μM (positive control for transport) and vehicle control. • b. For the test article assays, the HBSS with Bis-Tris, pH 5.5 in each well contains the test article at 10 μM, 30 μM, 100 μM, 300 μM, 1000 μM, 3000 μM, and 10000 μM. • 6. Incubate at ambient temperature with orbital shaking at approximately 60 RPM for the incubation time of 1 minute. • 7. […]
• 1. The amount of radiolabeled probe substrate will be quantified with radiometric detection on a 1450 Microbeta (Perkin-Elmer). • 2. The amount of non-radiolabeled probe substrate or test article will be quantified by LC-MS/MS. • 3. […] For uptake assays, the net transporter-mediated uptake rate (V) of the substrate by each SLC transporter will be calculated as follows:
[formula] • 5. For transport kinetics assessment, Km and Vmax will be calculated by non-linear regression using the Michaelis-Menten equation. • 6. […]

LAT1 = target: T3, LAT1 (Homo sapiens, UniProt Q01650); experiment: LAT1 transporter-mediated cellular uptake (substrate test); assay type: cell-based; conditions: uptake 3 min, 37° C.
T3 construct: expressed in transfected cells
Description: DMSO (0.5%) was the solvent control (SC) and the known inhibitor for the positive control (PC) was JPH203 (10 μM). Data were fit to either the Michaelis-Menten equation for uptake or the Hill equation for inhibition using the solvent control to define the top and the positive control inhibitor to define the bottom. Symbols represent the mean±SEM, n=3.
Human OAT1 (SLC22A6) and OAT3 (SLC22A8) overexpressing HEK-293 cells and control cells without transfected transporter (Corning® TransportoCells™) are plated to 24-well plates and cellular uptake of 10 to 100 μg/mL of a Compound of the Disclosure is measured in the absence and presence of transporter inhibitors. Uptake of a Compound of the Disclosure into control cells is measured only without chemical inhibitors. […] Cells are grown in DMEM (Gibco 4196, high glucose, without sodium pyruvate) supplemented with MEM non-essential amino acids and 10% fetal bovine serum. Cells are re-fed with fresh medium after attachment (4-6 hours post-seeding). Cell are plated at a density of 4×10^5/well in 24-well plates coated with poly-D-lysine. Transporter assays are conducted in 400 μL of HBSS supplemented with 10 mM Hepes, pH 7.4
The known probe substrates used as positive controls are 3 μM chlorothiazide for OAT1, 2 μM estrone-3-sulfate for OAT3, 10 μM gabapentin for LAT1, 50 μM Gly-Sar for PepT1, 500 μM thiophene-2-glyoxylic acid for MCT1. […]

[4] = test system: glycosphingolipid (GSL) biosynthesis; conditions: LSDs; cited from earlier work
[5] = substrate: CC(=O)N[C@H](CC(C)C)C(=O)O; experiment: cells, lysate or membranes; conditions: other: uptake 1 min, room temperature

T3 sequence (Q01650 whole entry): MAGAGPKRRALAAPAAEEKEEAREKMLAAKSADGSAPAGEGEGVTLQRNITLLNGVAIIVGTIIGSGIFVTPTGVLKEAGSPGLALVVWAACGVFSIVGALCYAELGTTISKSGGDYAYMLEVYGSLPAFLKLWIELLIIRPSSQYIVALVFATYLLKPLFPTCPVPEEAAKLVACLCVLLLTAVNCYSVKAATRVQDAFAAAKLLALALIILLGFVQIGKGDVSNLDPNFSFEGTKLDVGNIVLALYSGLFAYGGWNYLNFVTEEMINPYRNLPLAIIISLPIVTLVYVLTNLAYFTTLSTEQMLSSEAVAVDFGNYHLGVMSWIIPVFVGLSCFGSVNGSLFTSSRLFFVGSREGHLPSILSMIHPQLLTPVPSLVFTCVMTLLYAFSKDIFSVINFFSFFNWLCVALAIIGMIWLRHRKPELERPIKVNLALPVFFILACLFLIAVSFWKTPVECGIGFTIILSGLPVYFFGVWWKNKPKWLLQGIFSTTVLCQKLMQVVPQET
T3 sequence (P08195 102-630 partner): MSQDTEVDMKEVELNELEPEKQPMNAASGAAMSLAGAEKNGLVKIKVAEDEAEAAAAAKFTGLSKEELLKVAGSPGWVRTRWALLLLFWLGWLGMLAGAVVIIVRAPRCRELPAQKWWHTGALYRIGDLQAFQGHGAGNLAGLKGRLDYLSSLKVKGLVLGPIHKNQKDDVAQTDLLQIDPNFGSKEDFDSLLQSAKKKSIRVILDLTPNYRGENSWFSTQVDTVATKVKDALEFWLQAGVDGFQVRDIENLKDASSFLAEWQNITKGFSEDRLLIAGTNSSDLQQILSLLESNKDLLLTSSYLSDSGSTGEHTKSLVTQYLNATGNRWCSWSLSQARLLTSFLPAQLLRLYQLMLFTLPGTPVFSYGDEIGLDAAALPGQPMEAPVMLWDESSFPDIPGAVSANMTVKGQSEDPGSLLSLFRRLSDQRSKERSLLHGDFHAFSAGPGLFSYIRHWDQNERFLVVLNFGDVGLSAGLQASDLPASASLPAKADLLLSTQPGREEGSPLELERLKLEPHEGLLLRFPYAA

Ki ([3]; assuming competitive inhibition, read-out: affinity (Ki) for MCT1, Cheng-Prusoff equation): 1.6 mM
IC50 ([3]; probe substrate 2-thiophene glyoxylate 500 μM): 11 mM
Molecule: CC(=O)N[C@H](CC(C)C)C(=O)O [N-acetyl-D-leucine]

uptake mediated by MCT1 (human transporter MCT1): greatly reduced transport
Molecule: COC(=O)[C@H](CC(C)C)NC(C)=O [N-acetyl-L-leucine methyl ester]

substrate of LAT1 (uptake) (LAT1): neither a substrate
Molecule: CC(=O)N[C@@H](CC(C)C)C(=O)O [N-acetyl-leucine]

uptake mediated by MCT1 (human transporter MCT1): transported
Molecule: CCC(=O)N[C@H](C(=O)O)C(C)C [N-propionyl-L-valine]

Second part, the molecule before the results:

Molecule: [2H]C([2H])([2H])C([2H])(C([2H])([2H])[2H])C([2H])([2H])C([2H])(NC(C)=O)C(=O)O (racemic) [N-acetyl-DL-[^2H10]leucine]
Vmax, metabolism [1]: 6.8 µmol/min/mg
disappearance, asymptote as % of the initial concentration [1]: ~50%
Vmax, metabolism [2]: 2.6 µmol/min/mg
disappearance, asymptote as % of the initial concentration [2]: ~50%

Molecule: COC(=O)[C@@H](NC(C)=O)C(C)C [N-acetyl-L-valine methyl ester]
uptake mediated by MCT1 (human transporter MCT1): greatly reduced transport

Molecule: CCC(=O)N[C@H](C(=O)O)[C@@H](C)CC [N-propionyl-L-isoleucine]
uptake mediated by MCT1 (human transporter MCT1): transported

Molecule: CCCCN1C[C@H](O)[C@@H](O)[C@H](O)[C@H]1CO [miglustat]
benefit in clinical trial of substrate reduction therapy [4]: Some benefit

B1: monocarboxylate transporter (MCT1) (Homo sapiens) (protein)
chain: T1 sequence (P53985 1-500)
Km [5]: 1000 µM
